Test results from article PMC9939733 (The Journal of Biological Chemistry, 2023).
Substitutions are numbered along the chain they refer to. Several values for one entry are separate records, joined by “and”; a condition that tells them apart may be missing. Equal entries are not always repeated. Structures can show the parent of a compound that is named as a salt.

Experiments:
Type in all cases: biochemical
WT IDH1 [1] = biological target: T1, WT IDH1 (Homo sapiens, UniProt O75874); experiment: Absorbance assay, WT activity in the presence of equimolar DL-isocitrate (inhibition)
T1 construct: made in house; host or cells: Escherichia coli BL21(DE3) pLyS
T1 sequence (O75874 whole entry): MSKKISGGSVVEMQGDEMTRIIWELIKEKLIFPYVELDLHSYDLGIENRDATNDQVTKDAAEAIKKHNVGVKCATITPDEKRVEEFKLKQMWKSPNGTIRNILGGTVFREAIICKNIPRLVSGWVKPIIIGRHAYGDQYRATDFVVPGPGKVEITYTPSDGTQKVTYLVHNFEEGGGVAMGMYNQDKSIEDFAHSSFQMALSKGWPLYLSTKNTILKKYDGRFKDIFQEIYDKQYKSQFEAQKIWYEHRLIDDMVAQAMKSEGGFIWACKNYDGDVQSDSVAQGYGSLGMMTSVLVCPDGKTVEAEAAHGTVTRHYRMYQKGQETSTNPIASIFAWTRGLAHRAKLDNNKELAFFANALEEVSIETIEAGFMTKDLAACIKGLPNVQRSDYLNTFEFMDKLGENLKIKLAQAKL
Outline: (§1)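 Values come from four technical replicates per reaction; compound transfer used a simultaneous pipettor and reagent dispensing triggered the start.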

WT IDH2 [2] = biological target: T2, WT IDH2 (Homo sapiens, UniProt P48735); experiment: as above
T2 construct: made in house; host or cells: Sf21 insect cells (cell pellets prepared at Evotec)
T2 sequence (P48735 40-452): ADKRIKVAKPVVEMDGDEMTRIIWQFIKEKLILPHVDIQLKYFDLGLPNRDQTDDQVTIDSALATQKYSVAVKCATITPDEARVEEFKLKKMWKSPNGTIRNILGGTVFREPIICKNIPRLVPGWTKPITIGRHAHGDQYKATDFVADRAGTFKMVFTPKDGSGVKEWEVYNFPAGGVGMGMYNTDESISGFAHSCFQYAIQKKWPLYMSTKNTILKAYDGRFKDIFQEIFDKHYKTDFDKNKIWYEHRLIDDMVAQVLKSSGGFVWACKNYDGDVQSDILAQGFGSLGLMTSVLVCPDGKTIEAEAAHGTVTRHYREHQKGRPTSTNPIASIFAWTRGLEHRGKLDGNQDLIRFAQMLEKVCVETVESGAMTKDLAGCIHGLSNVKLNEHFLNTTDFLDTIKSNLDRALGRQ
Outline: as §1

R132H IDH1 [3] = biological target: T3, R132H IDH1 (Homo sapiens, UniProt O75874, R132H); experiment: Absorbance assay (NADPH consumption), substrate turnover in the absence of 2OG; set-up: made in house; host or cells: Escherichia coli BL21(DE3) pLyS
T3 sequence (O75874 whole entry R132H): as the sequence (O75874 whole entry) above, with R132H counted along it
Outline: as §1

R172K IDH2 [4] = biological target: T4, R172K IDH2 (Homo sapiens, UniProt P48735, R172K); experiment: as above
T4 construct: made in house; host or cells: Sf21 insect cells (cell pellets prepared at Evotec)
T4 sequence (P48735 40-452 R172K): T2 sequence (P48735 40-452) with R133K
Outline: as §1

R140Q IDH2 [5] = biological target: T5, R140Q IDH2 (Homo sapiens, UniProt P48735, R140Q); experiment: as above
T5 construct: made in house; host or cells: Sf21 insect cells (cell pellets prepared at Evotec)
T5 sequence (P48735 40-452 R140Q): T2 sequence (P48735 40-452) with R101Q
Outline: as §1

R132H IDH1 [6] = biological target: T3, R132H IDH1; experiment: Absorbance assay, variant activity in the presence of equimolar 2OG (inhibition screen); set-up: made in house; host or cells: Escherichia coli BL21(DE3) pLyS
Outline: as §1

WT IDH1 [7] = biological target: T1, WT IDH1; experiment: Absorbance assay, substrate activity in the absence of DL-isocitrate
Outline: as §1

WT IDH2 [8] = biological target: T2, WT IDH2; experiment: as above
Outline: as §1

R172K IDH2 [9] = biological target: T4, R172K IDH2; experiment: Absorbance assay, variant activity in the presence of equimolar 2OG (inhibition screen)
Outline: as §1

R140Q IDH2 [10] = biological target: T5, R140Q IDH2; experiment: as above
Outline: as §1

[11] = […] isocitrate and […] test compound, 75 μM NADP+, 2.0 nM WT IDH1
[12] = […] isocitrate and […] test compound, 75 μM NADP+, 2.0 nM WT IDH2
[13] = no 2OG, […] test compound, 0.03 μM R132H IDH1, 50 μM NADPH, 2OG = 100
[14] = no 2OG, 1.0 mM test compound, 0.03 μM R172K IDH2, 50 μM NADPH, 2OG = 100
[15] = no 2OG, 6.0 mM test compound, 0.03 μM R140Q IDH2, 50 μM NADPH, 2OG = 100
[16] = […] 2OG and […] test compound, 0.03 μM R132H IDH1, 50 μM NADPH
[17] = no DL-isocitrate, […] test compound, 75 μM NADP+, 2.0 nM WT IDH1, compared to DL-isocitrate
[18] = no DL-isocitrate, […] test compound, 75 μM NADP+, 2.0 nM WT IDH2, compared to DL-isocitrate
[19] = 1.0 mM 2OG and 1.0 mM test compound, 0.03 μM R172K IDH2, 50 μM NADPH
[20] = 6.0 mM 2OG and 6.0 mM test compound, 0.03 μM R140Q IDH2, 50 μM NADPH

Row | activity [%] (%-substrate conversion after 20 min incubation) (WT IDH1 [1]; [11]) | activity [%] (%-substrate conversion after 20 min incubation) (WT IDH2 [2]; [12]) | activity [%] (%-substrate conversion after 20 min incubation) (R132H IDH1 [3]; [13]) | activity [%] (%-substrate conversion after 20 min incubation) (R172K IDH2 [4]; [14]) | activity [%] (%-substrate conversion after 20 min incubation) (R140Q IDH2 [5]; [15]) | activity [%] (%-substrate conversion after 20 min incubation) (R132H IDH1 [6]; [16]) | activity [%] (%-substrate conversion after 20 min incubation) (WT IDH1 [7]; [17]) | activity [%] (%-substrate conversion after 20 min incubation) (WT IDH2 [8]; [18]) | activity [%] (%-substrate conversion after 20 min incubation) (R172K IDH2 [9]; [19]) | activity [%] (%-substrate conversion after 20 min incubation) (R140Q IDH2 [10]; [20]) | Compound | activity [%] (%-substrate conversion after 20 min incubation) (WT IDH1 [1]) | activity [%] (%-substrate conversion after 20 min incubation) (WT IDH2 [2]) | activity [%] (%-substrate conversion after 20 min incubation) (R132H IDH1 [3]) | activity [%] (%-substrate conversion after 20 min incubation) (R172K IDH2 [4]) | activity [%] (%-substrate conversion after 20 min incubation) (R140Q IDH2 [5]) | activity [%] (%-substrate conversion after 20 min incubation) (R132H IDH1 [6]) | activity [%] (%-substrate conversion after 20 min incubation) (WT IDH1 [7]) | activity [%] (%-substrate conversion after 20 min incubation) (WT IDH2 [8]) | activity [%] (%-substrate conversion after 20 min incubation) (R172K IDH2 [9]) | activity [%] (%-substrate conversion after 20 min incubation) (R140Q IDH2 [10])
1 | 106 ± 4% | 96 ± 5% | < 10% | < 10% | < 10% | 94 ± 8% | < 10% | < 10% | 107 ± 3% | 108 ± 7% | CCOC(=O)/C=C/C(=O)O [mono-ethyl fumarate] | – | – | – | – | – | – | – | – | – | –
2 | – | – | – | – | – | – | – | – | – | – | O=C1CC(C(=O)O)C(C(=O)O)O1 (racemic) [DL-isocitric acid lactone] | 105 ± 2% | 106 ± 2% | < 10% | < 10% | < 10% | 99 ± 2% | ~10% and 12 ± 4% | ~10% and 11 ± 1% | 95 ± 3% | 118 ± 18%
3 | 100 ± 1% | 98 ± 2% | < 10% | < 10% | < 10% | 106 ± 2% | < 10% | < 10% | 96 ± 8% | 110 ± 3% | O=C(O)CC(=O)C(=O)O [oxaloacetic acid] | – | – | – | – | – | – | – | – | – | –
4 | 101 ± 1% | 99 ± 2% | < 10% | < 10% | < 10% | 95 ± 2% | < 10% | < 10% | 100 ± 5% | 110 ± 9% | C[C@@](O)(CC(=O)O)C(=O)O [(R)-citramalic acid] | – | – | – | – | – | – | – | – | – | –
5 | 100 ± 1% | 100 ± 2% | < 10% | < 10% | < 10% | 103 ± 4% | < 10% | < 10% | 98 ± 4% | 117 ± 11% | O=C(O)CC(=O)O [malonic acid] | – | – | – | – | – | – | – | – | – | –
6 | 97 ± 2% | 97 ± 3% | < 10% | < 10% | < 10% | 100 ± 4% | < 10% | < 10% | 89 ± 2% | 124 ± 11% | O=C(O)CCC(=O)O [succinic acid] | – | – | – | – | – | – | – | – | – | –
7 | 103 ± 2% | 99 ± 3% | < 10% | < 10% | < 10% | 104 ± 3% | < 10% | < 10% | 102 ± 9% | 115 ± 12% | CC(CC(=O)O)C(=O)O (racemic) [DL-2-methylsuccinic acid] | – | – | – | – | – | – | – | – | – | –
8 | 111 ± 6% | 97 ± 5% | < 10% | < 10% | < 10% | 112 ± 8% | < 10% | < 10% | 114 ± 12% | 108 ± 4% | CC(=O)C(=O)O [pyruvic acid] | – | – | – | – | – | – | – | – | – | –

Row | Compound | activity [%] (%-substrate conversion after 20 min incubation) (WT IDH1 [1]; [11]) | activity [%] (%-substrate conversion after 20 min incubation) (WT IDH2 [2]; [12]) | activity [%] (%-substrate conversion after 20 min incubation) (R132H IDH1 [3]; [13]) | activity [%] (%-substrate conversion after 20 min incubation) (R172K IDH2 [4]; [14]) | activity [%] (%-substrate conversion after 20 min incubation) (R140Q IDH2 [5]; [15]) | activity [%] (%-substrate conversion after 20 min incubation) (R132H IDH1 [6]; [16]) | activity [%] (%-substrate conversion after 20 min incubation) (WT IDH1 [7]; [17]) | activity [%] (%-substrate conversion after 20 min incubation) (WT IDH2 [8]; [18]) | activity [%] (%-substrate conversion after 20 min incubation) (R172K IDH2 [9]; [19]) | activity [%] (%-substrate conversion after 20 min incubation) (R140Q IDH2 [10]; [20]) | activity [%] (%-substrate conversion after 20 min incubation) (WT IDH1 [1]) | activity [%] (%-substrate conversion after 20 min incubation) (WT IDH2 [2]) | activity [%] (%-substrate conversion after 20 min incubation) (R132H IDH1 [3]) | activity [%] (%-substrate conversion after 20 min incubation) (R172K IDH2 [4]) | activity [%] (%-substrate conversion after 20 min incubation) (R140Q IDH2 [5]) | activity [%] (%-substrate conversion after 20 min incubation) (R132H IDH1 [6]) | activity [%] (%-substrate conversion after 20 min incubation) (WT IDH1 [7]) | activity [%] (%-substrate conversion after 20 min incubation) (WT IDH2 [8]) | activity [%] (%-substrate conversion after 20 min incubation) (R172K IDH2 [9]) | activity [%] (%-substrate conversion after 20 min incubation) (R140Q IDH2 [10])
9 | C=C(CC(=O)O)C(=O)O [itaconic acid] | 99 ± 1% | 99 ± 2% | < 10% | < 10% | < 10% | 92 ± 2% | < 10% | < 10% | 95 ± 7% | 96 ± 3% | – | – | – | – | – | – | – | – | – | –
10 | succinyl CoA | 100 ± 1% | 99 ± 1% | < 10% | < 10% | < 10% | 73 ± 1% | < 10% | < 10% | 91 ± 6% | 117 ± 2% | – | – | – | – | – | – | – | – | – | –
